Source: patent US8969325B2, “TRPV1 antagonists” (AbbVie Inc., priority 2011, dated 2015)

Assays:
human TRPV1 [1] = target: T1, human TRPV1 (Homo sapiens (Human), UniProt Q8NER1); assay: Capsaicin Activation Assay (intracellular Ca2+, FLIPR); format: cell-based; conditions: recombinant HEK293 cells expressing hTRPV1, 50 nM capsaicin
Description: (Logan, Utah). Dulbecco's phosphate-buffered saline (D-PBS) (with 1 mg/mL glucose and 3.6 mg/l Na pyruvate, without phenol red), L-glutamine, hygromycin B, and Lipofectamine® were obtained from Life Technologies (Grand Island, N.Y.). G418 sulfate was obtained from Calbiochem-Novabiochem Corp. (San Diego, Calif.). […] (St. Louis, Mo.). […] The cDNA for human TRPV1 (hTRPV1) was isolated by reverse transcriptase-polymerase chain reaction (RT-PCR) from human small intestine poly A+ RNA supplied by Clontech (Palo Alto, Calif.) using primers designed surrounding the initiation and termination codons identical to the published sequences (Hayes et al. […] The resulting cDNA PCR products were subcloned into pCIneo mammalian expression vector (Promega) and fully sequenced using fluorescent dye-terminator reagents (Prism, PerkinElmer Applied Biosystems Division) and a PerkinElmer Applied Biosystems Model 373 DNA sequencer or Model 310 genetic analyzer. Expression plasmids encoding the hTRPV1 cDNA were transfected into HEK293 cells using Lipofectamine®. Forty-eight hours after transfection, the neomycin-resistant cells were selected with growth medium containing 800 μg/mL Geneticin (Life Technologies, formerly Gibco BRL). Surviving individual colonies were isolated and screened for TRPV1 activity. […] Compound stocks, 10 mM, were prepared in DMSO, and diluted serially across a 384-well plate using a Bravo BenchCel workstation (Agilent Technologies, Santa Clara, Calif.). […] On the day prior to the experiment, the recombinant HEK293 cells expressing human TRPV1 (hTRPV1) were removed from tissue culture flasks and plated in growth medium into black-walled clear-bottom 384-well Biocoat™ poly-D-lysine assay plates (BD Biosciences, Bedford, Mass.) using a Multidrop® dispenser (ThermoScientific, Waltham, Mass.). […] Molecular Devices, Sunnyvale, Calif.) was added to each well using the Multidrop® dispenser. […] Fluorescence readings were made at 1 to 5 second intervals over the course of the experimental run.

human TRPV1 [2] = target: T1, human TRPV1; assay: Acid Activation Assay (pH 5.0, intracellular Ca2+, FLIPR); format: cell-based; conditions: percentage of the maximal pH 5.0-induced response remaining; recombinant HEK293 hTRPV1 cells; maximum concentration tested 37.5 μM
Description: Dulbecco's modified Eagle's medium (DMEM) with 4.5 m g/mL D-glucose, fetal bovine serum, L-glutamine, and 2-morpholinoethanesulfonic acid (MES) were purchased from Sigma-Aldrich Co. (St. Louis, Mo.). Dulbecco's phosphate-buffered saline (DPBS) with Ca^2+, Mg^2+, and 1 mg/mL D-glucose (pH 7.4), Geneticin®, 0.25% trypsin-1 mM EDTA, and penicillin-streptomycin were purchased from Invitrogen Corp. (Carlsbad, Calif.). The FLIPR® Calcium 4 assay kit was purchased from Molecular Devices (Sunnyvale, Calif.).
The cDNA for human TRPV1 (hTRPV1) was isolated by reverse transcriptase-polymerase chain reaction (RT-PCR) from human small intestine poly A+ RNA supplied by Clontech (Palo Alto, Calif.) using primers designed surrounding the initiation and termination codons identical to the published sequences (Hayes et al. Pain 2000, 88, 205-215). The resulting cDNA PCR products were subcloned into pCIneo mammalian expression vector (Promega) and fully sequenced using fluorescent dye-terminator reagents (Prism, PerkinElmer Applied Biosystems Division) and a PerkinElmer Applied Biosystems Model 373 DNA sequencer or Model 310 genetic analyzer. Expression plasmids encoding the hTRPV1 cDNA were transfected into HEK293 cells using Lipofectamine®. Forty-eight hours after transfection, the neomycin-resistant cells were selected with growth medium containing 800 μg/mL Geneticin (Life Technologies, formerly Gibco BRL). Surviving individual colonies were isolated and screened for TRPV1 activity. Cells expressing recombinant TRPV1 were maintained at 37° C. in DMEM containing 4 mM L-glutamine, 300 μg/mL G418 (Calbiochem) and 10% fetal bovine serum under a humidified 5% CO2 atmosphere.
The functional activity of compounds at the TRPV1 receptor was determined by measurement of intracellular Ca^2+ levels ([Ca^2+]i) using the Fluorescence Imaging Plate Reader (FLIPR)TETRA®. All compounds were tested over a 12-point one-half-log concentration range with 37.5 μM being the maximum concentration tested. Compound stocks, 10 mM, were prepared in DMSO, and diluted serially across a 384-well plate using a Bravo BenchCel workstation (Agilent Technologies, Santa Clara, Calif.). On the day prior to the experiment, the recombinant HEK293 cells expressing human TRPV1 (hTRPV1) were removed from tissue culture flasks and plated in growth medium into black-walled clear-bottom 384-well Biocoat™ poly-D-lysine assay plates (BD Biosciences, Bedford, Mass.) using a Multidrop® dispenser (ThermoScientific, Waltham, Mass.). On the day of the experiment growth medium was removed, and the no-wash FLIPR® Calcium-4 dye (λEX=470-495 nm, λEM=515-575 nm) was added to each well using the Multidrop® dispenser. The plated cells were incubated for 90-120 min in the dark at 25° C. The test compounds dissolved in DMSO were then added to the plates using an Agilent Bravo workstation (Agilent Technologies Inc., Santa Clara, Calif.). Three minutes later, a pH 5.0 solution was added to each well. Reagents were delivered at a rate of 40 μL/sec, and the final assay volume was 80 μL. Acidic pH solutions were prepared by titration of DPBS/MES with 1 N HCl. The intensity of the fluorescence was captured and digitally transferred to an interfaced PC. The maximum peak measured for the concentration range tested was used to calculate the corresponding peak increase in fluorescence over baseline (relative fluorescence units) which was expressed as the percentage (max % remain) of the maximal pH 5.0-induced response.
Table 1 reports the percentage (max % remain) of the maximal pH 5.0-induced response measured for the compounds tested in the recombinant HEK293 cell assay. Most of the compounds tested inhibited calcium flux only partially following TRPV1 activation by the pH 5.0 solution.

T1 sequence (Q8NER1 whole entry): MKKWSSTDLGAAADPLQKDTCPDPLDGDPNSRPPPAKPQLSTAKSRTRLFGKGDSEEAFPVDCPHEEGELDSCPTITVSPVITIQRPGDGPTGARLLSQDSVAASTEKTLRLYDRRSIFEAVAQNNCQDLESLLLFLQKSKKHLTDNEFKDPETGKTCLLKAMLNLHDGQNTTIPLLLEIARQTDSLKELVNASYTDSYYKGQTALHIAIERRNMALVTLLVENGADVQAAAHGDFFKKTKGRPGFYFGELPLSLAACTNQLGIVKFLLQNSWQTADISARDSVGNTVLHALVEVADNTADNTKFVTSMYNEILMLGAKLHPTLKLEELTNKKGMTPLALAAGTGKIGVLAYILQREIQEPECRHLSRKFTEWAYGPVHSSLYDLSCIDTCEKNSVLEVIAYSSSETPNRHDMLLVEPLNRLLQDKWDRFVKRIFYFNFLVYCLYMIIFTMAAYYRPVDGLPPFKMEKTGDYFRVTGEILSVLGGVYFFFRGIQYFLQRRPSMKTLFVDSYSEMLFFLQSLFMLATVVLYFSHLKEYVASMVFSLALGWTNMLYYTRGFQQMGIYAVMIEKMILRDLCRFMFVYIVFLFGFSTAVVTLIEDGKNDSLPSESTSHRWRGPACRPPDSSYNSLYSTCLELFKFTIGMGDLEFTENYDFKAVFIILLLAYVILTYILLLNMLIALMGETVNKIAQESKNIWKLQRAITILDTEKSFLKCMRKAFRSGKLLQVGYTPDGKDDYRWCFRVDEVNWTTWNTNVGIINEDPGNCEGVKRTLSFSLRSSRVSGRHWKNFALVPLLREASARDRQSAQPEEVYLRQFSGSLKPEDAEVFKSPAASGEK

| SMILES | IC50 (human TRPV1 [1]) [nM] | human TRPV1 H^+ (max % remain) (human TRPV1 [2]) [%] |
| --- | --- | --- |
| Cn1c(=O)ccc2c(NC(=O)N[C@@H]3C[C@@](C)(CF)Oc4cc(Cl)ccc43)cccc21 [Example 41, 1-[(2S,4R)-7-chloro-2-(fluoromethyl)-2-methyl-3,4-dihydro-2H-chromen-4-yl]-3-(1-methyl-2-oxo-1,2-dihydroquinolin-5-yl)urea] | 12 | 74 |
| CC1(C)C[C@@H](NC(=O)Nc2ccc3c(c2)NC(=O)N(CCO)C3)c2cccc(F)c2O1 [Example 42, 1-[(4R)-8-fluoro-2,2-dimethyl-3,4-dihydro-2H-chromen-4-yl]-3-[3-(2-hydroxyethyl)-2-oxo-1,2,3,4-tetrahydroquinazolin-7-yl]urea] | 510 | 8 |
| CC1(C)C[C@@H](NC(=O)Nc2ccc3c(c2)NC(=O)N(CCO)C3)c2ccc(F)cc2O1 [Example 43, 1-[(4R)-7-fluoro-2,2-dimethyl-3,4-dihydro-2H-chromen-4-yl]-3-[3-(2-hydroxyethyl)-2-oxo-1,2,3,4-tetrahydroquinazolin-7-yl]urea] | 94 | 8 |
| CCC1(CC)C[C@@H](NC(=O)Nc2ccc3c(c2)NC(=O)N(CCO)C3)c2cccc(F)c2O1 [Example 44, 1-[(4R)-2,2-diethyl-8-fluoro-3,4-dihydro-2H-chromen-4-yl]-3-[3-(2-hydroxyethyl)-2-oxo-1,2,3,4-tetrahydroquinazolin-7-yl]urea] | 65 | 3 |
| CCC1(CC)C[C@@H](NC(=O)Nc2ccc3c(c2)NC(=O)N(CCO)C3)c2ccccc2O1 [Example 45, 1-[(4R)-2,2-diethyl-3,4-dihydro-2H-chromen-4-yl]-3-[3-(2-hydroxyethyl)-2-oxo-1,2,3,4-tetrahydroquinazolin-7-yl]urea] | 43 | 4 |
| CCC1(CC)C[C@@H](NC(=O)Nc2ccc3c(c2)NC(=O)N(CCO)C3)c2ccc(C(F)(F)F)cc2O1 [Example 46, 1-[(4R)-2,2-diethyl-7-(trifluoromethyl)-3,4-dihydro-2H-chromen-4-yl]-3-[3-(2-hydroxyethyl)-2-oxo-1,2,3,4-tetrahydroquinazolin-7-yl]urea] | 367 | 0 |
| CCC1(CC)C[C@@H](NC(=O)Nc2ccc3c(c2)NC(=O)N(CCO)C3)c2ccc(Cl)cc2O1 [Example 47, 1-[(4R)-7-chloro-2,2-diethyl-3,4-dihydro-2H-chromen-4-yl]-3-[3-(2-hydroxyethyl)-2-oxo-1,2,3,4-tetrahydroquinazolin-7-yl]urea] | 169 | 0 |
| CC1(C)C[C@@H](NC(=O)Nc2ccc3c(c2)NC(=O)N(CCO)C3)c2ccc(C(F)(F)F)cc2O1 [Example 48, 1-[(4R)-2,2-dimethyl-7-(trifluoromethyl)-3,4-dihydro-2H-chromen-4-yl]-3-[3-(2-hydroxyethyl)-2-oxo-1,2,3,4-tetrahydroquinazolin-7-yl]urea] | 21 | 1 |
| O=C(Nc1ccc2c(c1)NC(=O)N(CCO)C2)N[C@@H]1CC(CF)(CF)Oc2ccc(F)cc21 [Example 49, 1-[(4R)-6-fluoro-2,2-bis(fluoromethyl)-3,4-dihydro-2H-chromen-4-yl]-3-[3-(2-hydroxyethyl)-2-oxo-1,2,3,4-tetrahydroquinazolin-7-yl]urea] | 6100 | 8 |

Results, then the molecule that gave them:

| IC50 (human TRPV1 [1]) [nM] | human TRPV1 H^+ (max % remain) (human TRPV1 [2]) [%] | SMILES |
| --- | --- | --- |
| 45 | 0 | CCC1(CC)C[C@@H](NC(=O)Nc2ccc3c(c2)NC(=O)N(CCO)C3)c2cc(F)ccc2O1 [Example 50, 1-[(4R)-2,2-diethyl-6-fluoro-3,4-dihydro-2H-chromen-4-yl]-3-[3-(2-hydroxyethyl)-2-oxo-1,2,3,4-tetrahydroquinazolin-7-yl]urea] |
| 330 | 10 | CC1(C)C[C@@H](NC(=O)Nc2ccc3c(c2)NC(=O)N(CCO)C3)c2cc(F)ccc2O1 [Example 51, 1-[(4R)-6-fluoro-2,2-dimethyl-3,4-dihydro-2H-chromen-4-yl]-3-[3-(2-hydroxyethyl)-2-oxo-1,2,3,4-tetrahydroquinazolin-7-yl]urea] |
| 950 | 32 | O=C(Nc1ccc2c(c1)NC(=O)N(CCO)C2)N[C@@H]1CCOc2ccc(F)cc21 [Example 52, 1-[(4R)-6-fluoro-3,4-dihydro-2H-chromen-4-yl]-3-[3-(2-hydroxyethyl)-2-oxo-1,2,3,4-tetrahydroquinazolin-7-yl]urea] |
| 1800 | 1 | O=C(Nc1ccc2c(c1)NC(=O)N(CCO)C2)N[C@@H]1CCOc2c1cccc2C(F)(F)F [Example 53, 1-[3-(2-hydroxyethyl)-2-oxo-1,2,3,4-tetrahydroquinazolin-7-yl]-3-[(4R)-8-(trifluoromethyl)-3,4-dihydro-2H-chromen-4-yl]urea] |
| 260 | 1 | O=C(Nc1ccc2c(c1)NC(=O)N(CCO)C2)N[C@@H]1CCOc2cc(C(F)(F)F)ccc21 [Example 54, 1-[3-(2-hydroxyethyl)-2-oxo-1,2,3,4-tetrahydroquinazolin-7-yl]-3-[(4R)-7-(trifluoromethyl)-3,4-dihydro-2H-chromen-4-yl]urea] |
| 7300 | 36 | O=C(Nc1ccc2c(c1)NC(=O)N(CCO)C2)N[C@@H]1CCc2cc(F)ccc21 [Example 55, 1-[(1R)-5-fluoro-2,3-dihydro-1H-inden-1-yl]-3-[3-(2-hydroxyethyl)-2-oxo-1,2,3,4-tetrahydroquinazolin-7-yl]urea] |
| 700 | 67 | O=C(Nc1ccc2c(c1)NC(=O)N(CCO)C2)N[C@H]1CC2(CCC2)Oc2ccc(F)cc21 [Example 56, 1-[(4S)-6-fluoro-3,4-dihydrospiro[chromene-2,1′-cyclobutan]-4-yl]-3-[3-(2-hydroxyethyl)-2-oxo-1,2,3,4-tetrahydroquinazolin-7-yl]urea] |
| 380 | 43 | CC1(C)C[C@H](NC(=O)Nc2ccc3c(c2)NC(=O)N(CCO)C3)c2cc(F)ccc2O1 [Example 57, 1-[(4S)-6-fluoro-2,2-dimethyl-3,4-dihydro-2H-chromen-4-yl]-3-[3-(2-hydroxyethyl)-2-oxo-1,2,3,4-tetrahydroquinazolin-7-yl]urea] |
